Source: PMC12571071, “Preventing neuropathy and improving anticancer chemotherapy with a carbazole-based compound” (Science Advances, 2025)
Where two headings read alike, the source gives them in different places.

Legend:
HeLa cells = test: HeLa cell viability (PrestoBlue) assay, 72 h; type: cell-based, human; conditions: for GI50 FK866 with carbazole/GI50 FK866 / GI50 PTX/GI50 PTX with carbazole: ratio at the highest noncytotoxic dose of carbazole analog; for GI50 FK866 with carbazole/GI50 FK866: readout of NAMPT activation; for GI50 PTX/GI50 PTX with carbazole: synergy with PTX; for fold reduction of GI50 by addition of 12 μM Carba1: drug with 12 μM Carba1 vs drug alone
Experimental: The human HeLa cell line was tested negative for mycoplasma contamination. HeLa cells were grown in RPMI 1640 medium supplemented with penicillin/streptomycin (100 μg/ml) and 10% FBS and maintained in a humidified incubator at 37°C and 5% CO2.
Cell viability was analyzed using the colorimetric PrestoBlue assay. Cells were seeded in 96-well microplates at a density of 7500 cells per well, allowed to adhere for 24 hours, and treated for 72 hours with either DMSO or drugs at indicated concentrations. PrestoBlue (10 μl) was then added to each well, followed by a 30-min incubation. Fluorescence was measured using a FLUOstar Optima microplate reader (excitation, 544 nm; emission, 580 nm; BMG Labtech).

adult mouse DRG neurons = test: Axonal degeneration index in dissociated adult mouse DRG neurons; conditions: DIV 12 neurons, 72 h; Carba1 12 μM, PTX 50 nM, Cis 10 μM, Bort 100 nM
Experimental: After 4 days in vitro (DIV), at least 30% of medium was changed, and 10 μM AraC (cytosine β-D-arabino furanoside) was added to suppress nonneuronal growth. […] Neurons were fixed with 4% paraformaldehyde (PFA), washed with PBS, permeabilized with PBS–0.01% Triton X-100 for 15 min, and blocked with PBS–10% FBS for 1 hour before being stained overnight at 4°C with neurofilament antibody. Following PBS washes, secondary antibody (goat anti-chicken Alexa Fluor 488) was applied for 2 hours at room temperature (R.T.). Following additional PBS washes, coverslips were mounted with Fluoromount-G.
Images of random fields of dissociated adult DRG neurons, immunostained with antineurofilament or anti-TUBB3 antibodies, were captured using a 20× objective lens (Olympus IX81) and a Sensicam QE monochrome camera (Cooke Corporation). Degeneration masks were generated on the basis of the method described by Gerdts et al. ([66]). Axonal degeneration was quantified by measuring the total axonal area and fragmented axonal area in the same field, using degeneration masks as shown in fig. […] Images were processed in Fiji using global autothresholding, binarization, and the particle analyzer module to detect fragments (20 to 10,000 pixels), as previously described ([17]). The degeneration index was calculated as the ratio of fragmented axonal area to total axonal area.

[1] = Homo sapiens, HeLa cells, 72 h, PrestoBlue, drug applied alone, read-out: GI50, drug alone
[2] = cell viability, compound alone, read-out: GI50

SMILES	GI50 (HeLa cells; [2]) [µM]	GI50 FK866 with carbazole/GI50 FK866 (HeLa cells)	GI50 PTX/GI50 PTX with carbazole (HeLa cells)	also measured
CC(C)C[C@H](NC(=O)[C@H](Cc1ccccc1)NC(=O)c1cnccn1)B(O)O [Bort, bortezomib, reference compound]				GI50 (HeLa cells; [1]): 0.0359 ± 0.0037 µM; GI50 (HeLa cells; Homo sapiens, HeLa cells, 72 h, with 12 μM Carba1, read-out: GI50, drug in combination with Carba1): 0.04 ± 0.0033 µM; axonal fragmentation / degeneration, agent alone (adult mouse DRG neurons): induced significant axonal fragmentation
N.N.[Cl][Pt][Cl] [Cis, cisplatin, reference compound]				GI50 (HeLa cells; HeLa cells, 72 h, PrestoBlue, drug applied alone, read-out: GI50, drug alone): 0.167 ± 0.0308 µM
Cc1cc(-n2cccc2)c(C)c2c1[nH]c1ccc(Br)cc12 [Compound 2]	16	2	1.6	
CCc1cccc2c1[nH]c1c(C)cc(-n3cccc3)c(C)c12 [Compound 3]	> 25	1.5	1.5	
Cc1cc(-n2cccc2)c(C)c2c1[nH]c1cc(Cl)ccc12 [Compound 4]	15	0.93	1.8	
Cc1cc(-n2ccc(CN(C)C)c2)c(C)c2c1[nH]c1ccc(Cl)cc12 [Compound 6]	12.7	1	0.8	
CCNCc1ccn(-c2cc(C)c3[nH]c4ccc(Cl)cc4c3c2C)c1 [Compound 7]	10.3	1	0.77	
Cc1cc(-n2ccc(CO)c2)c(C)c2c1[nH]c1ccc(Cl)cc12 [Compound 8]	1	1	3.8	
Cc1cc(-n2c(C)ccc2C)c(C)c2c1[nH]c1ccc(Br)cc12 [Compound 9]	> 25	0.99	1	
CCOC(=O)Oc1ccc2[nH]c3c(C)cc(-n4cccc4)c(C)c3c2c1 [Compound 10]	25	1.1	1.7	
Cc1cc(-n2cccc2)c(C)c2c1[nH]c1ccc(O)cc12 [Compound 11]	> 25	1.3	1.5	
Cc1cc(-n2c(C)ccc2C)c(C)c2c1[nH]c1ccc(Cl)cc12 [Compound 12]	14	1.09	0.9	
Cc1cc(-n2ccc(C=O)c2)c(C)c2c1[nH]c1ccc(Cl)cc12 [Compound 13]	1	1	4.4	
Cc1cc(-n2ccc(C=O)c2)c(C)c2c1[nH]c1ccc(Br)cc12 [Compound 14]	1.2	1	2.5	
CCOC(=O)Oc1ccc2[nH]c3c(C)cc(-n4c(C)ccc4C)c(C)c3c2c1 [Compound 15]	> 25	1.1	1	
COc1cccc(NCC(F)Cn2c3ccc(Cl)cc3c3c(C)c(-n4cccc4)cc(C)c32)c1 (centres unmarked) [Compound 16]	> 25	0.98	1.2	
CC(=O)O[C@@]12CO[C@@H]1C[C@H](O)[C@@]1(C)C(=O)[C@H](O)C3=C(C)[C@@H](OC(=O)[C@H](O)[C@@H](NC(=O)OC(C)(C)C)c4ccccc4)C[C@@](O)([C@@H](OC(=O)c4ccccc4)[C@H]21)C3(C)C [DTX, docetaxel, reference compound]				fold reduction of GI50 by addition of 12 μM Carba1 (HeLa cells; HeLa cells, 72 h): 3.8 fold; GI50 (HeLa cells; [1]): 0.0011 ± 0.0002 µM
C/C(=C\c1csc(C)n1)[C@@H]1C[C@@H]2O[C@]2(C)CCC[C@H](C)[C@H](O)[C@@H](C)C(=O)C(C)(C)[C@@H](O)CC(=O)O1 [Epo-B, epothilone-B, reference compound]				fold reduction of GI50 by addition of 12 μM Carba1 (HeLa cells; HeLa cells, 72 h): 4.4 fold; GI50 (HeLa cells; [1]): 0.0005 ± 3e-05 µM
